Measured values: the CombiSolv-Exp solvation set (Vermeire and Green 2021)

Assay: solvent given as SMILES

COc1ccc(O)cc1
Conditions	solvation free energy, 298 K [kcal/mol]
in CCCCCC	-7.15

ClCCl
Conditions	solvation free energy, 298 K [kcal/mol]
in C1CCOC1	-4.27
in C1COCCO1	-4.09
in C=CCCCCCCCCCCCCCC	-2.77
in CC#N	-3.99
in CC(=O)N(C)C	-4.34
in CC(C)=O	-4.13
in CC(C)CC(C)(C)C	-2.84
in CC(C)O	-3.26
in CCC(C)=O	-4.05
in CCCCC	-3.09
in CCCCCCC	-2.91
in CCCCCCCC	-2.86
in CCCCCCCCC=CCCCCCCCC(=O)OCC(COC(=O)CCCCCCCC=CCCCCCCCC)OC(=O)CCCCCCCC=CCCCCCCCC	-3.37
in CCCCCCCCCCCCCC	-2.67
in CCCCCCCCCCCCCCCC	-2.72
in CCCCCCCCCCCCO	-2.91
in CCCCCCCCN(CCCCCCCC)CCCCCCCC	-2.82
in CCCCCCCCO	-3.08
in CCCCCN(CCCCC)CCCCC	-2.99
in CCCCCO	-3.19
in CCCCCl	-3.55
in CCCCN(C=O)CCCC	-3.92
in CCCCN(CCCC)CCCC	-2.87
in CCCCO	-3.29
in CCCCOC	-3.78
in CCCCOCCCC	-3.21
in CCCOCCC	-3.51
in CCN1CCCC1=O	-4.29
in CCN(CC)C(C)=O	-4.28
in CCNC(C)=O	-3.72
in CCNC=O	-3.7
in CCO	-3.36
in CCOC(=O)c1ccccc1C(=O)OCC	-3.51
in CCOC(C)=O	-4.04
in CCOCC	-3.87
in CN1CCCC1=O	-4.23
in CN1CCCCC1=O	-4.45
in CNC(C)=O	-3.74
in CO	-3.49
in COC(C)=O	-4.03
in CS(C)=O	-4.13
in Cc1ccc(C)cc1	-3.55
in Cc1cccc(C)c1	-3.58
in Cc1ccccc1C	-3.58
in ClC(Cl)(Cl)Cl	-3.36
in ClC(Cl)Cl	-3.62
in ClCCCl	-3.72
in Clc1ccccc1	-3.53
in N#Cc1ccccc1	-3.78
in NC=O	-2.66
in O	-1.32
in O=C1CCCCC1	-4.13
in [2H]O[2H]	-1.5

CCCCS
Conditions	solvation free energy, 298 K [kcal/mol]
in O	-0.88

O=C1C=CC(=O)C=C1
Conditions	solvation free energy, 298 K [kcal/mol]
in O	-6.5

c1ccc2c(c1)Cc1ccccc1C2
Conditions	solvation free energy, 298 K [kcal/mol]
in O	-3.78

S=C=S
Conditions	solvation free energy, 298 K [kcal/mol]
in C1CCCC1	-3.57
in C1COCCO1	-3.03
in CC(C)=O	-3.07
in CC(C)CC(C)(C)C	-3.25
in CCC(C)=O	-3.1
in CCCCCCC	-3.33
in CCCCCCCC	-3.29
in CCCCCCCCO	-3.11
in CCCCCO	-3.31
in CCCCO	-3.08
in CCO	-3.1
in CCOC(C)=O	-3.12
in CN(C)C=O	-3
in Cc1ccc(C)cc1	-3.55
in ClC(Cl)(Cl)Cl	-3.62
in ClC(Cl)=C(Cl)Cl	-3.52
in ClCCCl	-3.29
in N#Cc1ccccc1	-3.18
in O	0.16
in O=C1CCCCC1	-3.31
in c1ccccc1	-3.6

CC1=CCC(=C(C)C)CC1
Conditions	solvation free energy, 298 K [kcal/mol]
in O	0.16

OC1CCCCCC1
Conditions	solvation free energy, 298 K [kcal/mol]
in O	-5.48

CC1CCC(C)(C)C1 (configuration not stated)
Conditions	solvation free energy, 298 K [kcal/mol]
in O	2.47

CC(=O)c1c(C)[nH]n(-c2ccccc2)c1=O
Conditions	solvation free energy, 298 K [kcal/mol]
in O	-9.89

CCCC#N
Conditions	solvation free energy, 298 K [kcal/mol]
in C=CCCCCCCCCCCCCCC	-3.53
in CC(C)(C)O	-4.67
in CC(C)CO	-4.56
in CC(C)O	-4.6
in CCC(C)O	-4.57
in CCCCCC	-3.75
in CCCCCCC	-3.68
in CCCCCCCCCCCCCCCC	-3.32
in CCCCCCCCCCO	-3.92
in CCCCCCCCCO	-4.07
in CCCCCCCCO	-4.24
in CCCCCCCO	-4.32
in CCCCCCO	-4.32
in CCCCCO	-4.47
in CCCCO	-4.62
in CO	-5.21
in O	-3.63
in [2H]O[2H]	-3.58

CCCCCCCCCCCCCCCCCCCCCCCCC
Conditions	solvation free energy, 298 K [kcal/mol]
in CC(=O)N(C)C	-17.1
in CC(C)(C)O	-15.3
in CN(C)C=O	-17.1
in COC(C)(C)C	-17.1
in O	5.39

CCCC=CC=O
Conditions	solvation free energy, 298 K [kcal/mol]
in O	-3.68

CC(C)CCCCCCOC(=O)c1ccccc1C(=O)OCCCCCCC(C)C
Conditions	solvation free energy, 298 K [kcal/mol]
in O	-6.14

COc1ccc(NS(=O)(=O)c2ccc(N)cc2)nn1
Conditions	solvation free energy, 298 K [kcal/mol]
in O	-21.1

CCCCCCCCOC(=O)c1ccccc1C(=O)OCCCCCCCC
Conditions	solvation free energy, 298 K [kcal/mol]
in O	-6.68

O=C(O)c1ccc([N+](=O)[O-])cc1
Conditions	solvation free energy, 298 K [kcal/mol]
in C1CCOC1	-13.3
in C1COCCO1	-13.1
in CC(C)(C)O	-12.4
in CC(C)CCO	-11.9
in CC(C)CO	-11.9
in CC(C)O	-12.2
in CC(C)OC(C)C	-11.3
in CC(C)OCCO	-12.6
in CC(O)COC(C)(C)C	-12.6
in CCC(C)O	-12.1
in CCCC(C)O	-12
in CCCCCCCCCCO	-11.7
in CCCCCCCCO	-11.8
in CCCCCCCO	-11.9
in CCCCCCO	-12
in CCCCCO	-12
in CCCCCOC(C)=O	-11.7
in CCCCO	-12
in CCCCOC(C)=O	-11.9
in CCCCOCCO	-12.5
in CCCO	-12.2
in CCCOCCO	-12.6
in CCO	-12.3
in CCOC(C)=O	-12.2
in CCOCC	-12.2
in CCOCCO	-12.8
in CN(C)C=O	-12.8
in CO	-12.5
in COC(C)=O	-12.4
in COC(C)CCO	-12.6
in O	-9.44

CCCCCCCCCCCCCCCCCCCCCCCCCC
Conditions	solvation free energy, 298 K [kcal/mol]
in CC(=O)N(C)C	-17.6
in CC(C)(C)O	-15.8
in CN(C)C=O	-17.8
in O	5.59

O=[N+]([O-])c1ccc(CCl)cc1
Conditions	solvation free energy, 298 K [kcal/mol]
in Brc1ccccc1	-5.65
in CC(C)=O	-10
in CC(C)CCO	-8.34
in CC(C)CO	-8.25
in CCC(C)O	-8.28
in CCCC(C)O	-8.24
in CCCCCO	-8.4
in CCCCO	-8.49
in CCCCOC(C)=O	-9.67
in CCCO	-8.54
in CCOCC	-9.26
in O	-5.14

Cn1c(=O)c2c(ncn2C)n(C)c1=O
Conditions	solvation free energy, 298 K [kcal/mol]
in O	-12.6

CCCCCCCCCC(C)C
Conditions	solvation free energy, 298 K [kcal/mol]
in O	4.04

COc1cc(C(C)=O)ccc1O
Conditions	solvation free energy, 298 K [kcal/mol]
in CCC(C)=O	-12.2
in CCCO	-11.8
in Cc1ccccc1	-10.8
in ClC=CCl	-12

O=C1CCCCC1
Conditions	solvation free energy, 298 K [kcal/mol]
in CCCCCC	-4.98
in CCCCCCC	-5.18
in CCCCCCCCCCCCCCCC	-4.97
in ClC(Cl)(Cl)Cl	-6.23
in ClCCCl	-6.78
in O	-4.91

CCCS
Conditions	solvation free energy, 298 K [kcal/mol]
in CC(C)CC(C)(C)C	-3.78
in O	-0.99

CC[N+](=O)[O-]
Conditions	solvation free energy, 298 K [kcal/mol]
in C=CCCCCCCCCCCCCCC	-3.33
in CCC(C)=O	-5.25
in CCCC(C)C	-4.09
in CCCCCCC	-3.34
in CCCCCCCC	-3.37
in CCCCCCCCCCCCCCCC	-3.17
in CCCCCCCCO	-3.93
in COC(C)=O	-5.46
in O	-3.72
in [2H]O[2H]	-3.75

CC(=O)Oc1ccccc1
Conditions	solvation free energy, 298 K [kcal/mol]
in O	-4.78

COCCOC(=O)c1ccccc1C(=O)OCCOC
Conditions	solvation free energy, 298 K [kcal/mol]
in O	-13.5
